Experimental data as given in PubChem BioAssay (NCI).
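48-hour exposure; five concentrations; linearly interpolated endpoints. TGI: total growth inhibition.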

Legend:
Experiment in all cases: NCI-60 cell line screen, 48 h
IGROV1 ovarian = test system: IGROV1 ovarian
SK-OV-3 ovarian = test system: SK-OV-3 ovarian
UACC-257 melanoma = test system: UACC-257 melanoma
HOP-92 NSCLC = test system: HOP-92 NSCLC
OVCAR-3 ovarian = test system: OVCAR-3 ovarian
M14 melanoma = test system: M14 melanoma
MDA-N = test system: MDA-N
TK-10 renal = test system: TK-10 renal
KM12 colon = test system: KM12 colon
SF-539 CNS = test system: SF-539 CNS

Row | Structure (SMILES) | TGI (IGROV1 ovarian) [µM] | TGI (SK-OV-3 ovarian) [µM] | TGI (UACC-257 melanoma) [µM] | TGI (HOP-92 NSCLC) [µM] | TGI (OVCAR-3 ovarian) [µM] | TGI (M14 melanoma) [µM] | TGI (MDA-N) [µM] | TGI (TK-10 renal) [µM] | TGI (KM12 colon) [µM] | TGI (SF-539 CNS) [µM]
1 | Cc1cc(-c2[nH]c(C(=O)O)cc2I)on1 | > 100 | > 100 | > 100 | > 100 | > 100 | > 100 | > 100 | > 100 | > 100 | 
2 | COc1ccc2[nH]c(Cl)c(/C=C3/C(=O)Nc4cc(C)c(OC)cc43)c2c1 | 17.1 | 9.4 | 23.6 | 28.9 | 6.46 | 14.2 | 3.5 | 21.3 | 23.2 | 4.8
3 | COC(=O)C(C)(N=Cc1ccccc1)c1ccccc1 (stereo not given) | > 100 | > 100 | > 100 | > 100 | > 100 | > 100 | > 100 | > 100 | > 100 | > 100
4 | ClC(Cl)(Cl)C1=N[C@H]2[C@H](Br)[C@@H]3O[C@@H](c4ccccc4)[C@H](c4ccccc4)O[C@@H]3[C@H]2O1 | 30.9 | 40.5 | 37.3 | 31.5 | 31.9 | 50.3 | 38 | 37.5 | 45.6 | 
5 | CCOC(=O)N1CCN(c2ccc3c(C)cc(C)nc3n2)CC1 | > 100 | > 100 | > 100 | > 100 | > 100 | > 100 | > 100 | > 100 | > 100 | > 100
6 | CCC1C(c2cccc(OC)c2O)c2cc3c(cc2OC1N1CCCC1)OCO3 (stereo not given) | 45.3 |  | 71.3 |  | 44.5 | 23.9 | 19.7 | 82.1 | 50.8 | 27
7 | COC(=O)c1cc(NC(=O)c2cc(NC(=O)c3cc([N+](=O)[O-])cn3C)cn2C)cn1C |  | > 100 |  | 95.7 | > 100 | > 100 | > 100 | 94.7 | > 100 | > 100
8 | CN(C(=O)Cc1ccc(Cl)c(Cl)c1)[C@H]1CCCC[C@@H]1[N+]1(C)CCCC1 | > 100 | > 100 | > 100 |  | > 100 | > 100 | > 100 | > 100 | > 100 | > 100
9 | Cn1c(C(C#N)c2nc(Cl)ncc2Br)nc2ccccc21 (stereo not given) | > 100 | > 100 | > 100 | > 100 | > 100 | > 100 | > 100 | > 100 | > 100 | > 100
10 | O=C1Sc2ccc(Br)cc2C(=O)Sc2ccccc21 | 31.6 | > 62.9 | 28.4 | 33.6 | 27.2 | 26.6 | 22.8 | 38.3 | 33.8 | 26.4
11 | COc1ccccc1C1SCC(=O)N1c1ccc(-c2ccc(-n3c(-c4ccccc4)nc4ccccc4c3=O)cc2)cc1 (stereo not given) | > 100 | > 100 | > 100 |  | > 100 | > 100 | > 100 | > 100 | > 100 | > 100
12 | Cc1ccc(OCC2OC(n3cnc4c(N(C)C)nc(Br)nc43)CC2Oc2ccc(C)cc2)cc1 (stereo not given) | > 100 | > 100 | > 100 | > 100 | > 100 | > 100 | > 100 | > 100 | > 100 | > 100
13 | COC(=O)/C=C(\C)C(=O)N(C)c1ccccc1I |  | > 100 | > 100 | > 100 | > 100 | > 100 | > 100 |  | > 100 | 
14 | Cc1ccsc1/C=N/Nc1cc(C)c2cccc(C)c2n1 | > 100 | > 100 | > 100 | > 100 | > 100 | > 100 | > 100 | > 100 | > 100 | 
15 | CC(C)[C@@H]1CC[C@@H](C)C[C@H]1OC(=O)/C=C1/C2C=CC(O2)C1C(=O)O[C@@H]1C[C@H](C)CC[C@H]1C(C)C (stereo not given in full) | > 100 | > 100 | > 100 | > 100 | > 100 | > 100 | > 100 | > 100 | > 100 | > 100
16 | CC(C)C(C/C=C1\CC(CO)(COC(=O)c2ccccc2)OC1=O)C(C)C (stereo not given) | 37.2 | 87.9 | 70.6 | 29.3 | 37.7 | 32.8 | 57.8 | 34.2 | 35.6 | 
17 | O=C1C(NCCc2ccc(O)c(O)c2)=CC(=O)c2ncccc21 | 27.2 | 38.5 | 24.8 | 54.3 | 7.77 | 40.5 | 4.74 | > 71.6 | 30.5 | 30.1
18 | CN(C)c1nc(NC23CC4CC(CC(C4)C2)C3)nc(N(C)C)n1 |  | > 100 | > 100 | 82.2 | > 76.2 | > 57.9 | > 45.9 | > 100 | > 100 | > 79.6
19 | Cc1ccc(S(=O)(=O)/N=C(\NN)Nc2ccc(Cl)cc2)cc1 | > 100 | > 100 | > 100 | > 100 | > 100 | > 100 | > 100 | > 100 | > 100 | > 100
20 | CCCCCCCCCCCCCCCCCCNc1ccn(C2OC(COP(=O)(O)OCC3CCC(n4cnc5c(=O)[nH]cnc54)O3)C(O)C2O)c(=O)n1 (stereo not given) | > 100 | > 100 | > 100 | > 100 | > 100 | > 100 | > 100 | > 100 | > 100 | > 100
21 | COC(=O)c1ccccc1C#CC#Cc1ccccc1C(=O)OC | > 10 | > 10 | > 10 |  | 7.91 | > 10 | > 10 | > 10 | > 10 | > 10
